# Test results: ChEMBL document CHEMBL1240349, “Influence of tigecycline on expression of virulence factors in biofilm-associated cells of methicillin-resistant Staphylococcus aureus” (2010)
# Columns and labels:
# Format in all cases: functional
# [1] = test system: Staphylococcus aureus; test: Increase in tsf gene expression in biofilm-associated cells of epidemic methicillin-resistant Staphylococcus aureus isolate 16 at 4 times MIC incubated for 1 hr by whole genome microarray relative to untreated control
# [2] = test system: Staphylococcus aureus; test: Decrease in capG expression in biofilm-associated cells of epidemic methicillin-resistant Staphylococcus aureus isolate 15 at 4 times MIC incubated for 1 hr by RT-PCR relative to untreated control
# [3] = test system: Staphylococcus aureus; test: Decrease in mecI gene expression in biofilm-associated cells of epidemic methicillin-resistant Staphylococcus aureus isolate 16 at 4 times MIC incubated for 1 hr by whole genome microarray relative to untreated control
# [4] = test system: Staphylococcus aureus; test: Increase in fnbB expression in biofilm-associated cells of epidemic methicillin-resistant Staphylococcus aureus isolate 16-1 at 4 times MIC incubated for 1 hr by RT-PCR relative to untreated control
# [5] = test system: Staphylococcus aureus; test: Decrease in fnbB expression in biofilm-associated cells of epidemic methicillin-resistant Staphylococcus aureus isolate 16-2 at 4 times MIC incubated for 1 hr by RT-PCR relative to untreated control
# [6] = test system: Staphylococcus aureus; test: Increase in ssaA expression in biofilm-associated cells of epidemic methicillin-resistant Staphylococcus aureus isolate 15 at 4 times MIC incubated for 1 hr by RT-PCR relative to untreated control
# [7] = test system: Staphylococcus aureus; test: Decrease in clfB expression in biofilm-associated cells of epidemic methicillin-resistant Staphylococcus aureus isolate 16-2 at 4 times MIC incubated for 1 hr by RT-PCR relative to untreated control
# [8] = test system: Staphylococcus aureus; test: Decrease in capC gene expression in biofilm-associated cells of epidemic methicillin-resistant Staphylococcus aureus isolate 16 at 4 times MIC incubated for 1 hr by RT-PCR relative to untreated control
# [9] = test system: Staphylococcus aureus; test: Increase in rpmI gene expression in biofilm-associated cells of epidemic methicillin-resistant Staphylococcus aureus isolate 16 at 4 times MIC incubated for 1 hr by whole genome microarray relative to untreated control
# [10] = test system: Staphylococcus aureus; test: Decrease in icaC gene expression in biofilm-associated cells of epidemic methicillin-resistant Staphylococcus aureus isolate 16 at 4 times MIC incubated for 1 hr by RT-PCR relative to untreated control
# [11] = test system: Staphylococcus aureus; test: Decrease in sasF expression in biofilm-associated cells of epidemic methicillin-resistant Staphylococcus aureus isolate 15 at 4 times MIC incubated for 1 hr by RT-PCR relative to untreated control
# [12] = test system: Staphylococcus aureus; test: Decrease in capC expression in biofilm-associated cells of epidemic methicillin-resistant Staphylococcus aureus isolate 15 at 4 times MIC incubated for 1 hr by RT-PCR relative to untreated control
# [13] = test system: Staphylococcus aureus; test: Increase in isaA gene expression in biofilm-associated cells of epidemic methicillin-resistant Staphylococcus aureus isolate 16 at 4 times MIC incubated for 1 hr by RT-PCR relative to untreated control
# [14] = test system: Staphylococcus aureus; test: Decrease in icaC gene expression in biofilm-associated cells of epidemic methicillin-resistant Staphylococcus aureus isolate 16 at 4 times MIC incubated for 1 hr by whole genome microarray relative to untreated control
# [15] = test system: Staphylococcus aureus; test: Decrease in capG expression in biofilm-associated cells of epidemic methicillin-resistant Staphylococcus aureus isolate 16-1 at 4 times MIC incubated for 1 hr by RT-PCR relative to untreated control
# [16] = test system: Staphylococcus aureus; test: Decrease in icaC expression in biofilm-associated cells of epidemic methicillin-resistant Staphylococcus aureus isolate 16-1 at 4 times MIC incubated for 1 hr by RT-PCR relative to untreated control
# [17] = test system: Staphylococcus aureus; test: Increase in cna expression in biofilm-associated cells of epidemic methicillin-resistant Staphylococcus aureus isolate 16-1 at 4 times MIC incubated for 1 hr by RT-PCR relative to untreated control
# [18] = test system: Staphylococcus aureus; test: Increase in mnhE gene expression in biofilm-associated cells of epidemic methicillin-resistant Staphylococcus aureus isolate 16 at 4 times MIC incubated for 1 hr by whole genome microarray relative to untreated control
# [19] = test system: Staphylococcus aureus; test: Decrease in sasF gene expression in biofilm-associated cells of epidemic methicillin-resistant Staphylococcus aureus isolate 16 at 4 times MIC incubated for 1 hr by whole genome microarray relative to untreated control
# [20] = test system: Staphylococcus aureus; test: Increase in pbp2 gene expression in biofilm-associated cells of epidemic methicillin-resistant Staphylococcus aureus isolate 16 at 4 times MIC incubated for 1 hr by whole genome microarray relative to untreated control
# [21] = test system: Staphylococcus aureus; test: Increase in rplD gene expression in biofilm-associated cells of epidemic methicillin-resistant Staphylococcus aureus isolate 16 at 4 times MIC incubated for 1 hr by whole genome microarray relative to untreated control
# [22] = test system: Staphylococcus aureus; test: Increase in mnhG gene expression in biofilm-associated cells of epidemic methicillin-resistant Staphylococcus aureus isolate 16 at 4 times MIC incubated for 1 hr by whole genome microarray relative to untreated control
# [23] = test system: Staphylococcus aureus; test: Decrease in capC expression in biofilm-associated cells of epidemic methicillin-resistant Staphylococcus aureus isolate 16-2 at 4 times MIC incubated for 1 hr by RT-PCR relative to untreated control
# [24] = test system: Staphylococcus aureus; test: Decrease in capB gene expression in biofilm-associated cells of epidemic methicillin-resistant Staphylococcus aureus isolate 16 at 4 times MIC incubated for 1 hr by whole genome microarray relative to untreated control
# [25] = test system: Staphylococcus aureus; test: Increase in sstD gene expression in biofilm-associated cells of epidemic methicillin-resistant Staphylococcus aureus isolate 16 at 4 times MIC incubated for 1 hr by whole genome microarray relative to untreated control
# [26] = test system: Staphylococcus aureus; test: Increase in isaA expression in biofilm-associated cells of epidemic methicillin-resistant Staphylococcus aureus isolate 15 at 4 times MIC incubated for 1 hr by RT-PCR relative to untreated control
# [27] = test system: Staphylococcus aureus; test: Increase in sarA gene expression in biofilm-associated cells of epidemic methicillin-resistant Staphylococcus aureus isolate 16 at 4 times MIC incubated for 1 hr by whole genome microarray relative to untreated control
# [28] = test system: Staphylococcus aureus; test: Increase in mnhG expression in biofilm-associated cells of epidemic methicillin-resistant Staphylococcus aureus isolate 16-1 at 4 times MIC incubated for 1 hr by RT-PCR relative to untreated control
# [29] = test system: Staphylococcus aureus; test: Increase in ssaA expression in biofilm-associated cells of epidemic methicillin-resistant Staphylococcus aureus isolate 16-2 at 4 times MIC incubated for 1 hr by RT-PCR relative to untreated control
# [30] = test system: Staphylococcus aureus; test: Increase in dnaG gene expression in biofilm-associated cells of epidemic methicillin-resistant Staphylococcus aureus isolate 16 at 4 times MIC incubated for 1 hr by whole genome microarray relative to untreated control
# [31] = test system: Staphylococcus aureus; test: Decrease in clpC expression in biofilm-associated cells of epidemic methicillin-resistant Staphylococcus aureus isolate 16-1 at 4 times MIC incubated for 1 hr by RT-PCR relative to untreated control
smiles,measurement,setting,value
CN(C)c1cc(NC(=O)CNC(C)(C)C)c(O)c2c1C[C@H]1C[C@H]3[C@H](N(C)C)C(O)=C(C(N)=O)C(=O)[C@@]3(O)C(O)=C1C2=O [TIGECYCLINE],fold change (FC),[1],3.23
same,fold change (FC),[2],1.58
same,fold change (FC),[3],2.39
same,fold change (FC),[4],3.03
same,fold change (FC),[5],1.53
same,fold change (FC),[6],1.17
same,fold change (FC),[7],1.18
same,fold change (FC),[8],1.75
same,fold change (FC),[9],10.51
same,fold change (FC),[10],2.23
same,fold change (FC),[11],1.86
same,fold change (FC),[12],1.64
same,fold change (FC),[13],7.68
same,fold change (FC),[14],2.06
same,fold change (FC),[15],1.01
same,fold change (FC),[16],2.23
same,fold change (FC),[17],3.42
same,fold change (FC),[18],3.15
same,fold change (FC),[19],2.3
same,fold change (FC),[20],3.91
same,fold change (FC),[21],13.06
same,fold change (FC),[22],2.85
same,fold change (FC),[23],1.09
same,fold change (FC),[24],2.08
same,fold change (FC),[25],3.27
same,fold change (FC),[26],1.09
same,fold change (FC),[27],2.37
same,fold change (FC),[28],5.16
same,fold change (FC),[29],1.72
same,fold change (FC),[30],2.19
same,fold change (FC),[31],1.14
